{
  "source": "paper PMC9538324",
  "about": "(Journal of medical virology, 2022)",
  "key": {"[1]": {"details": "human, in vivo; cited from earlier work"}, "SARS-CoV-2 Beta variant": {"test_system": "SARS-CoV-2 Beta variant", "test": "Virucidal assay", "details": "virus pretreated with 10 μM, compared with untreated and post-treated controls"}},
  "data": [
    {"smiles": "CCc1nc(C(N)=O)c(Nc2ccc(N3CCC(N4CCN(C)CC4)CC3)c(OC)c2)nc1NC1CCOCC1", "note": "[Gilteritinib, gilteritinib]", "values": [
      {"measurement": "clinical outcome", "setting": "[1]", "result": "successful remission"},
      {"measurement": "virucidal effect on virus viability", "setting": "SARS-CoV-2 Beta variant", "result": "did not greatly reduce viability"}
    ]}
  ]
}
